From patent publication US9809598B2 (Merck Patent GmbH, priority 2014, dated 2017)

Assays:
Tankyrases = conditions: read-out: EC50 [M] TNKS cellular assay; DLD1 cells, 24 hours, Axin2 increase
Protocol: Measurement of Cellular Inhibition of Tankyrase
Cells of the colon carcinoma cell line DLD1 are plated in 96 well plates with 1.5×10^4 cells per well. Next day, cells are treated with a serial dilution of test compound in seven steps as triplicates with a final DMSO concentration of 0.3%. […] The amount of isolated Axin2 protein is determined in a Luminex^200 machine (Luminex Corporation) according to the manufacturer's instruction by counting 100 events per well. […] As controls cells are treated with solvent alone (neutral control) and with a Tankyrase reference inhibitor IWR-2 (3E−06 M) which refers as control for maximum increase of Axin2. For analysis, the obtained data are normalized against the untreated solvent control and fitted for determination of the EC50 values using the Assay Explorer software (Accelrys).

PARP-1 = target: T1, PARP-1 (Homo sapiens, UniProt P09874); experiment: PARP-1 autoparsylation assay (HTRF); type: biochemical; conditions: His-tagged Parp-1, autoparsylation HTRF
T1 construct: purchased Enzo Life Sciences GmbH, Lörrach, Germany
Method in brief: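 His-tagged enzyme auto-modifies itself using biotinylated NAD/NAD; product detected by TR-FRET between cryptate anti-His antibody and Xlent-streptavidin, as emission ratio.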

TNKS2 = target: T2, TNKS2 (Homo sapiens, UniProt Q9H2K2); experiment: TNKS2 activity ELISA (autoparsylation assay); type: biochemical; conditions: GST-tagged Tnks-2 (873-1166 aa); read-out: IC50 [M] TNKS2 ELISA
T2 construct: GST-tagged Tnks-2 (873-1166 aa, prepared in-house); made in house
T2 sequence (Q9H2K2 873-1166): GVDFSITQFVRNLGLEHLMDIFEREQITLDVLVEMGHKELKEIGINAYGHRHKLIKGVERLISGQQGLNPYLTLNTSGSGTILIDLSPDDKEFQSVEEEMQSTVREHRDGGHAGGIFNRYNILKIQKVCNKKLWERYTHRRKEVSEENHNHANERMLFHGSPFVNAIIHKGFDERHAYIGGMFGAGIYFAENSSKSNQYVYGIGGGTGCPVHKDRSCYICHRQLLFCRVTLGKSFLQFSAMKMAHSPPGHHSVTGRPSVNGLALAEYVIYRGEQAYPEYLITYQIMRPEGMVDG
Method in brief: (§1)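 GST-tagged TNKS1 or TNKS2 captured on glutathione plates and allowed to auto-PARsylate with biotinylated NAD with or without compound. Biotin-ADP-ribosylated enzyme detected by streptavidin-HRP and luminescence; IC50 relative to inhibitor-free reaction.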

TNKS1 = target: T3, TNKS1 (Homo sapiens, UniProt O95271); experiment: TNKS1 activity ELISA (autoparsylation assay); type: biochemical; conditions: GST-tagged Tnks-1 (1023-1327 aa)
T3 construct: GST-tagged Tnks-1 (1023-1327 aa, prepared in-house); made in house
T3 sequence (O95271 1023-1327): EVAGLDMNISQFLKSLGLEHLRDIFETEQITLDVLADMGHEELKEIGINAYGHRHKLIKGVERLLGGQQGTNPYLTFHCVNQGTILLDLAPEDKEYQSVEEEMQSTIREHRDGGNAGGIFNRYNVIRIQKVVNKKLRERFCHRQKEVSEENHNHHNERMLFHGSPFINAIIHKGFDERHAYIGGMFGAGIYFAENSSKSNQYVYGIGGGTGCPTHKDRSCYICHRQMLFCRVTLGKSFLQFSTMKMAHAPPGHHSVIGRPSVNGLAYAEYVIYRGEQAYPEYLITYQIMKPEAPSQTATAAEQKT
Method in brief: as §1

T1 sequence (P09874 whole entry): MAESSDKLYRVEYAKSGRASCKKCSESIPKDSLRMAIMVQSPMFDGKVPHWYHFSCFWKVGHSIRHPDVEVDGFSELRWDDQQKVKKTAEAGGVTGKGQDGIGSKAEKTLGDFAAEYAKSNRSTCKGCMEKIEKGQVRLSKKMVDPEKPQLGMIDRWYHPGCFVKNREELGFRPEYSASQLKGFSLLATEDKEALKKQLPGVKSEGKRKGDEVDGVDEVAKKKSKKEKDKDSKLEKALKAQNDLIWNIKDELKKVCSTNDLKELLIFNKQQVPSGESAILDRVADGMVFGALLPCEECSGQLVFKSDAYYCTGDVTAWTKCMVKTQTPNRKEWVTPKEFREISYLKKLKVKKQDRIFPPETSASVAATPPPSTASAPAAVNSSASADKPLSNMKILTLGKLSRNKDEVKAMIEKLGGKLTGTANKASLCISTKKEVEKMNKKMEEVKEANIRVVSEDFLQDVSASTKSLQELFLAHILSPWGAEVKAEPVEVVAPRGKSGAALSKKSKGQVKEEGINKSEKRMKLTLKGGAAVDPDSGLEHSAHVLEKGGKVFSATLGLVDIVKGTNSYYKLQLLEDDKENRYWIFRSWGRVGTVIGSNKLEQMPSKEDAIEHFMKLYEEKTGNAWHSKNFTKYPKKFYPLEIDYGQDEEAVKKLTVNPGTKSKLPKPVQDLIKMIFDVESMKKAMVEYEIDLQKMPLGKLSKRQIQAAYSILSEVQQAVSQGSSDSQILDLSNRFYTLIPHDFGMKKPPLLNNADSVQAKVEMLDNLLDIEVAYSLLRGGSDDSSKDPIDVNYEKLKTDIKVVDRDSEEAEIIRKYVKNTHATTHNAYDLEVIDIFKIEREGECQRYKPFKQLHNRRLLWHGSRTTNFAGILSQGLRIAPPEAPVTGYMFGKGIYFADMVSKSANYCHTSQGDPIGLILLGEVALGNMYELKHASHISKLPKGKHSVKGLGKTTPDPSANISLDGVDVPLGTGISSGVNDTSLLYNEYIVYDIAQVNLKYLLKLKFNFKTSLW

Structure (SMILES) | EC50 (Tankyrases) | IC50 (PARP-1) | IC50 (TNKS2) | IC50 (TNKS1)
O=C(CCCc1nn2cc(F)cc2c(=O)[nH]1)N1CCC(c2nnc(-c3ccccc3)o2)CC1 [Compound C173, 6-Fluoro-2-{4-oxo-4-[4-(5-phenyl-[1,3,4]oxadiazol-2-yl)-piperidin-1-yl]-butyl}-3H-pyrrolo[2,1-f][1,2,4]triazin-4-one] | 8.5e-08 M | 3200 nM | 1.4e-08 M | 15 nM
CCn1cc(C(=O)C2CCN(C(=O)CCCc3nn4cc(C)cc4c(=O)[nH]3)CC2)cn1 [Compound C233, 2-{4-[4-(1-Ethyl-1H-pyrazole-4-carbonyl)-piperidin-1-yl]-4-oxo-butyl}-6-methyl-3H-pyrrolo[2,1-f][1,2,4]triazin-4-one] | 5.4e-08 M | 5300 nM | 2.3e-09 M | 1.2 nM
Cn1cc(C(=O)C2CCN(C(=O)CCCc3nn4c(F)c(F)cc4c(=O)[nH]3)CC2)cn1 [Compound C238, 6,7-Difluoro-2-{4-[4-(1-methyl-1H-pyrazole-4-carbonyl)-piperidin-1-yl]-4-oxo-butyl}-3H-pyrrolo[2,1-f][1,2,4]triazin-4-one] | 5.6e-08 M | 4100 nM | 1.5e-09 M | 1.5 nM
CC(C)(O)c1ccc(C(=O)C2CCN(C(=O)CCCc3nn4cc(F)cc4c(=O)[nH]3)CC2)cc1 [Compound C177, 6-Fluoro-2-(4-{4-[4-(1-hydroxy-1-methyl-ethyl)-benzoyl]-piperidin-1-yl}-4-oxo-butyl)-3H-pyrrolo[2,1-f][1,2,4]triazin-4-one] | 6.7e-08 M | 8000 nM | 4.8e-09 M | 7.1 nM
O=C(c1ccc(F)cc1)C1CCN(C(=O)CCCc2nn3cccc3c(=O)[nH]2)CC1 [Compound C142, 2-{4-[4-(4-Fluoro-benzoyl)-piperidin-1-yl]-4-oxo-butyl}-3H-pyrrolo[2,1-f][1,2,4]triazin-4-one] | 2e-08 M | 7200 nM | 1.4e-08 M | 14 nM
COc1ccc(C(=O)C2CCN(C(=O)CCCc3nn4cc(F)cc4c(=O)[nH]3)CC2)cc1 [Compound C39, 6-Fluoro-2-{4-[4-(4-methoxy-benzoyl)-piperidin-1-yl]-4-oxo-butyl}-3H-pyrrolo[2,1-f][1,2,4]triazin-4-one] | 3.1e-09 M | 2100 nM | 3.7e-10 M | 0.18 nM
Cc1scc2c(=O)[nH]c(CCCC(=O)N3CCC(C(=O)c4ccc(C(C)(C)O)cc4)CC3)nc12 [Compound C121, 2-(4-{4-[4-(1-Hydroxy-1-methyl-ethyl)-benzoyl]-piperidin-1-yl}-4-oxo-butyl)-7-methyl-3H-thieno[3,4-d]pyrimidin-4-one] | 6.8e-08 M | 3100 nM | 2.4e-09 M | 4.7 nM
COc1ccc(C(=O)C2CCN(C(=O)CCCc3nn4c(C)ccc4c(=O)[nH]3)CC2)cn1 [Compound C148, 2-{4-[4-(6-Methoxy-pyridine-3-carbonyl)-piperidin-1-yl]-4-oxo-butyl}-7-methyl-3H-pyrrolo[2,1-f][1,2,4]triazin-4-one] | 1.4e-09 M | 770 nM | 1.9e-10 M | 0.28 nM
Nc1ncc(C2CCN(C(=O)CCCc3nc4c(c(=O)[nH]3)COCC4)CC2)cc1-c1ncccn1 [Compound C195, 2-[4-(6-Amino-5-pyrimidin-2-yl-3′,4′,5′,6′-tetrahydro-2′H-[3,4′]bipyridinyl-1′-yl)-4-oxo-butyl]-3,5,7,8-tetrahydro-pyrano[4,3-d]pyrimidin-4-one] | 3.5e-08 M | 3300 nM | 6.8e-10 M | 2.1 nM
O=C(c1ccc(F)cc1)C1CCN(C(=O)CCCc2nn3cc(F)cc3c(=O)[nH]2)CC1 [Compound C175, 6-Fluoro-2-{4-[4-(4-fluoro-benzoyl)-piperidin-1-yl]-4-oxo-butyl}-3H-pyrrolo[2,1-f][1,2,4]triazin-4-one] | 3.7e-08 M | 4900 nM | 8.1e-10 M | 0.47 nM
